{"source": "patent US11891601B2", "about": "“Method to enhance the transcription regulation of SUPT4H on genes containing repetitive nucleotide sequences” (National Yang-Ming University, priority 2018, dated 2024)", "system": "R-loops on (CAG)n-eGFP in ST14A cells", "test": "RNA/DNA immunoprecipitation (DIP) assay of R-loops in ST14A cells expressing Q7-GFP or Q81-GFP", "type": "cell-based, rat", "details": "ST14A tet cells, tropolone 60 μM for 12 hours", "experimental": "Yeast cells were collected after culturing in 2% galactose-containing medium for 12 hours, and then grinded by glass beads in the presence of 300 μl extraction buffer (10 mM Tris-HCl pH 8.0, 10 mM EDTA, 200 mM NaCl, 1% SDS, 2% Triton X-100, 25 units RNase inhibitor). The nucleic acid mixture was subjected to sonication (Bioruptor UCD-200) and extracted by phenol (pH 8.0). Purified chromatin DNA and RNA, with or without RNase H treatment for 90 minutes, was precipitated by monoclonal antibody S9.6 bound to protein G agarose beads. […] The RNA/DNA hybrid (R-loop) signal was analyzed by qPCR and the Quantitative-Comparative CT (MCT) program. In yeast experiments, a pair of primers (Primer-B F and Primer-B R) were used to quantify R-loop signal in the vicinity of CAG repeats and the primer set AMP was used as a control. […] For Hdh^Q7/Q7 and Hdh^Q111/Q111, mouse HTT DIP primer set was used to quantify R-loop signal of the CAG repeating region and Tubal a DIP primer set was included as a control. […]\nPlease refer to FIG. 6. […] A relative high signal of R-loops was detected in (CAG)7-eGFP, but this signal is not increased by tropolone. […] RNA was extracted and analyzed by real-time RT-qPCR to measure the quantity of (CAG)n-GFP, SUPT4H and snRNA U6. […]"}
{"smiles": "O=c1cccccc1O", "note": "[Tropolone]", "values": [{"measurement": "R-loop signal by DIP assay, (CAG)8i-eGFP", "setting": "long repeat", "value": "significantly increased"}, {"measurement": "R-loop signal by DIP assay, (CAG)7-eGFP", "setting": "short repeat (CAG)7-eGFP", "value": "not increased"}]}
